Results taken from patent US20070066543A1, “Treatment of tay sachs or sandhoff diseases by enhancing hexosaminidase activity” (The Hospital For Sick Children, priority 2003, published 2007).
Where two headings read alike, the source gives them in different places.

Assays:
[1] = biological target: T1, hexosaminidase A/S in ISD cells (Homo sapiens, UniProt P06865); test: Hexosaminidase activity in infantile Sandhoff (ISD) fibroblasts grown with compound; assay type: cell-based
T1 construct: endogenous in cells; host or cells: infantile Sandhoff (ISD) patient fibroblasts
T1 sequence (P06865 89-529): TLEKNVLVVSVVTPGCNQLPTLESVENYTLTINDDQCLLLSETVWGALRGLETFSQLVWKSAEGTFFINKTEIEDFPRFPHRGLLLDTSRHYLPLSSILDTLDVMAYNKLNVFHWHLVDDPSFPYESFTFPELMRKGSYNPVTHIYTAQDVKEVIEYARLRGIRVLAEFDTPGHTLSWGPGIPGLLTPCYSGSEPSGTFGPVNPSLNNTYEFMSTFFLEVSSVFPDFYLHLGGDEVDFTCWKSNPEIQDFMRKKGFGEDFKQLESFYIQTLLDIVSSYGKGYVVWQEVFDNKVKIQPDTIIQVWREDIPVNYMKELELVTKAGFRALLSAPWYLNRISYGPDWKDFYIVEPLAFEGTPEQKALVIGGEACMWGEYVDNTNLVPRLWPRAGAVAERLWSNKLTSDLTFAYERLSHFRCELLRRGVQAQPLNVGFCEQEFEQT
T1 sequence (P06865 23-74 limits assumed): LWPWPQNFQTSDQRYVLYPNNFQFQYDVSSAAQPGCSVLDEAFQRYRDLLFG
Description: Cells were washed and lysed in Na Phosphate buffer pH 6.1. The lysates were divided into three equal aliquots (25 μl). To each aliquot, 25 μl of either MUGS ( 3.2 mM) or MUP (3 mg/ml) in 20 mM citrate phosphate buffer pH 4.3 was added. Reactions were incubated at 37° C. for 30-60 min. and stopped with 200 μl of 0.1M MAP buffer. Fluorescence was read using Molecular Devices.
Gemini EM MAX with excitation and emission set to 365 nm and 450 nm, respectively. The activity of Hexosaminidase A/S was measured using MUGS hydrolysis and acid phosphatase activity was measured using methylumbelliferyl phosphate (MUP).

[2] = tested on: hexosaminidase A in ASD fibroblasts; test: Hexosaminidase activity in adult Sandhoff (ASD) fibroblasts grown with compound; assay type: cell-based, human; conditions: ASD cells
Description: Fibroblast cell lines obtained from homozygous adult onset Tay-Sachs (ATSD), heterozygous adult onset Tay-Sachs (Het ATSD), infantile Tay-Sachs (ITSD and 4917), adult Sandhoff (ASD) and infantile Sandhoff (ISD) were cultured in the presence of various concentrations of ACAS and then examined for hexosaminidase A activity as described above. ACAS treatment gave increased hexosaminidase A activity in ATSD, ASD and ISD cells.

[3] = tested on: hexosaminidase A in ITSD fibroblasts; test: MUGS hydrolysis in infantile Tay-Sachs (ITSD) fibroblasts grown with compound; assay type: cell-based, human
Description: Fibroblast cell lines from an unaffected patient (WT, 4212), from a patient diagnosed with the chronic (adult) form of TSD and homozygous for the mutation G269S (ATSD, 1766 or 17662) and from a fetus with the acute (infantile) form of TSD (ITSD, 2317) were grown in a-MEM (Invitrogen) supplemented with 10% FCS, and antibiotics Pen/Strep (Invitrogen) at 37° C. in a CO2 incubator. 17662: A fibroblast cell line (17662) from an adult-onset Tay-Sachs patient homozygous for the most common point mutation associated with the disease, Gly 269 Ser in the α subunit of hexosaminidase A, was obtained from Department of Pediatrics, University of Saskatoon.
The effect of inhibitors on hexosaminidase A activity in fibroblast cells was evaluated using two formats (96- or 6-wells). For the dose response curves and kinetics of increased hexosaminidase A activity in the presence or absence of each compound, cells grown in 96 well tissue culture plates (Falcon) were used. […] Each concentration point of the compounds was evaluated in triplicate.
Following 3-7 days of incubation at 37° C. in the presence or absence of the compound being tested, intracellular hexosaminidase A activity was determined. […] Hexosaminidase A activity in lysates was measured using 25 μL of 3.2 mM MUGS in CP buffer with incubation at 37° for 1 hr. Afterwards, 250 μL of 0.1M 2-amino-2-methyl-1-propanol (pH 10.5) was used to stop the reaction and increase the fluorescence of the methyl umbelliferyl product, Fluorescence was read with a Perkin-Elmer LS50B Luminescence Spectrometer equipped with a sipper and using excitation wavelength of 365 nm and emission wavelength of 450 nm. For dose response and kinetic experiments, the relative increase in hexosaminidase A activity was expressed as the average fluorescence reading from three or four wells, with cells grown in the presence of compound divided by the average fluorescent reading from a minimum of four wells, with cells grown in the absence any compound. […]

[4] = biological target: hexosaminidase A in wild type fibroblasts (Homo sapiens, UniProt P06865+P07686); test: Hexosaminidase A activity (MUGS) in wild type fibroblasts grown with compound; assay type: cell-based
Chain of hexosaminidase A in wild type fibroblasts (P07686 315-556 limits assumed, one chain of several): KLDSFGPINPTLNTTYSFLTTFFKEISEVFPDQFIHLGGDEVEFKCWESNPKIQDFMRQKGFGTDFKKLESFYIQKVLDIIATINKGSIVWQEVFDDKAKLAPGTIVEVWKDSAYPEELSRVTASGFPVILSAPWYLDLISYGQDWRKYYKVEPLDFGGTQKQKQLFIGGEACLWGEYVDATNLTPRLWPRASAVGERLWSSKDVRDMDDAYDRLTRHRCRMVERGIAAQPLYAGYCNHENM
Chain of hexosaminidase A in wild type fibroblasts (P07686 122-311 limits assumed, one chain of several): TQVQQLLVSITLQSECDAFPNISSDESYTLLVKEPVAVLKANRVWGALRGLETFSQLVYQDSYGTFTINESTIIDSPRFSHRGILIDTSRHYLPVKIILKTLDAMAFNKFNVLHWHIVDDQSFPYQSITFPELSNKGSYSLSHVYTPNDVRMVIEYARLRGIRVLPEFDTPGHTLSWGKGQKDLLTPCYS
Chain of hexosaminidase A in wild type fibroblasts (P07686 50-107 partner limits assumed, one chain of several): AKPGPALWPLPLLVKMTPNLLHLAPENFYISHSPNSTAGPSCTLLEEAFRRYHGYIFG
Description: (§1) The effect of inhibitors on hexosaminidase A activity in fibroblast cells was evaluated using two formats (96- or 6-wells). For the dose response curves and kinetics of increased hexosaminidase A activity in the presence or absence of each compound, cells grown in 96 well tissue culture plates (Falcon) were used. To ensure that equal numbers of cells were seeded in each well, trypsinized cells were diluted to give 50% confluence when plated and 200 μL aliquoted into each well of the plate. Cells grown for longer than 5 days were supplemented with fresh medium. […] Each concentration point of the compounds was evaluated in triplicate.
Following 3-7 days of incubation at 37° C. in the presence or absence of the compound being tested, intracellular hexosaminidase A activity was determined. Medium was removed, cells were washed with PBS twice and lysed using 60 μL of 10 mM citrate phosphate buffer pH 4.5 (CP buffer) containing 0.5% human serum albumin and 0.5% Triton X-100. Cells were solubilized at room temperature for 15 min, and subsequently 25 μL of lysate was transferred to a new 96 well plate. Hexosaminidase A activity in lysates was measured using 25 μL of 3.2 mM MUGS in CP buffer with incubation at 37° for 1 hr. Afterwards, 250 μL of 0.1M 2-amino-2-methyl-1-propanol (pH 10.5) was used to stop the reaction and increase the fluorescence of the methyl umbelliferyl product, Fluorescence was read with a Perkin-Elmer LS50B Luminescence Spectrometer equipped with a sipper and using excitation wavelength of 365 nm and emission wavelength of 450 nm. For dose response and kinetic experiments, the relative increase in hexosaminidase A activity was expressed as the average fluorescence reading from three or four wells, with cells grown in the presence of compound divided by the average fluorescent reading from a minimum of four wells, with cells grown in the absence any compound. To control for plate to plate variability, control (untreated) cells were included with each 96 well plate.
Subsequently, hexosaminidase A activity was assayed using a MUGS assay as described above. […]

[5] = tested on: fibroblasts from a chronic TSD patient; conditions: human, 5 days
Description: as §1

[6] = biological target: T2, hexosaminidase from the bacterial species Streptomyces plicatus (Sp. Hex.) (Streptomyces plicatus, UniProt O85361); conditions: value carries reference superscript 56; cited from earlier work
T2 sequence (O85361 1-506): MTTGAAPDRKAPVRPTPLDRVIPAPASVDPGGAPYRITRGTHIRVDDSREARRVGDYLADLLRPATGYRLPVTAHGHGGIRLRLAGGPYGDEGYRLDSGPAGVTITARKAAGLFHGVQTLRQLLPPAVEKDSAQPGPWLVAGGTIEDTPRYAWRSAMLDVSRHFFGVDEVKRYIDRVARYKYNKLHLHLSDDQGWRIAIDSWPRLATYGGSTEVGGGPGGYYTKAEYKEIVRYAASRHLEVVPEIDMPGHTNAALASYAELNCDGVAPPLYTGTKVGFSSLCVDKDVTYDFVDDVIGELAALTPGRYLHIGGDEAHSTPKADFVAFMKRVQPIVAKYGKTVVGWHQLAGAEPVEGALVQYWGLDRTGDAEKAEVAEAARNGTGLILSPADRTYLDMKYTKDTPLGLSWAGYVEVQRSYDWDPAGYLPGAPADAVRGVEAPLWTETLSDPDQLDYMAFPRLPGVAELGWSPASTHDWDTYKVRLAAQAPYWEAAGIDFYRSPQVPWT

human hexosaminidase A = human hexosaminidase A (Homo sapiens, UniProt P06865+P07686); test: Ki on human hexosaminidase A; assay type: biochemical
Chain of human hexosaminidase A (P07686 315-556 limits assumed, one chain of several): as the sequence (P07686 315-556 limits assumed, one chain of several) above
Chain of human hexosaminidase A (P07686 122-311 limits assumed, one chain of several): as the sequence (P07686 122-311 limits assumed, one chain of several) above
Chain of human hexosaminidase A (P07686 50-107 partner limits assumed, one chain of several): as the sequence (P07686 50-107 partner limits assumed, one chain of several) above

adult mice = test: Toxicity studies in adult mice; assay type: in vivo
hexosaminidase B [7] = biological target: T3, hexosaminidase B (Homo sapiens, UniProt P07686); test: Denaturation of hexosaminidase B by guanidine hydrochloride; assay type: biochemical
T3 construct: from tissue; host or cells: human placenta
T3 sequence (P07686 315-556 limits assumed): as the sequence (P07686 315-556 limits assumed, one chain of several) above
T3 sequence (P07686 122-311 limits assumed): as the sequence (P07686 122-311 limits assumed, one chain of several) above
T3 sequence (P07686 50-107 partner limits assumed): as the sequence (P07686 50-107 partner limits assumed, one chain of several) above

[8] = tested on: hexosaminidases A plus B (total Hex); test: Plasma hexosaminidase A plus B in NGT-treated mice (MUG); assay type: in vivo; conditions: CD1 mice, 10, 40 or 100 mg i.p., 2 days later
Description: (§2) Plasma levels of hexosaminidases A plus B and hexosaminidase A alone were measured by the fluorescent assay described above, using MUG and MUGS as substrates respectively. β-mannosidase was similarly assayed using 4-methylumbelliferyl-β-D-mannopyranoside (MUM) as substrate.

hexosaminidase A plus B = test: Brain hexosaminidase A plus B in NGT-treated mice; assay type: in vivo; conditions: 40 mg s.c. every 4 days for 15 days
hexosaminidase B [9] = biological target: T3, hexosaminidase B; test: Heat denaturation of hexosaminidase B at 60° C.; assay type: biochemical; conditions: 60° C. up to 40 minutes, 2.4 μm NAG-thiazoline, MUG
Description: The effect of NAG-thiazoline on heat denaturation of human hexosaminidase B was also examined. The enzyme was incubated at 60° C. for up to 40 minutes in the presence or absence of 2.4 μm NAG-thiazoline and its activity was then assayed as described above using MUG as substrate.

β-mannosidase = test: Serum/plasma β-mannosidase in NGT-treated mice (MUM); assay type: in vivo
Description: as §2

[10] = biological target: T2, hexosaminidase from the bacterial species Streptomyces plicatus (Sp. Hex.); test: Ki on bacterial hexosaminidase (MUG assay); assay type: biochemical
[11] = adult male CD1 mice, 40 mg/mouse i.v. or s.c. every four days up to 30 days

Question: For `CC(=O)NC1CN2CCC(O)C2C(O)C1O` (stereo not drawn) [ACAS, 6-acetamido-6-deoxy-castanospermine], which “hexosaminidase A activity” value ([1]; various concentrations of ACAS) is on record?
Answer: increased

Question: And the “hexosaminidase A activity” value ([2]; various concentrations of ACAS)?
Answer: increased

Question: What about the “hexosaminidase A activity” value ([3]; ITSD fibroblasts, all concentrations) of the same compound?
Answer: decreased

Question: What about the “hexosaminidase A activity” value ([3]; infantile Tay-Sachs cells, ACAS 4 days, MUGS) of the same compound?
Answer: not

Question: What about the “hexosaminidase A activity” value ([4]; WT fibroblasts, all concentrations) of the same compound?
Answer: decreased

Question: What about the “hexosaminidase A activity” value ([4]; wild type cells, ACAS 4 days, MUGS) of the same compound?
Answer: increased

Question: With `CC(=O)N[C@@H]1[C@@H](O)[C@@H](O)[C@@H](CO)O[C@H]1O` [GalNAc, N-acetyl-β-D-galactosamine] as the compound, how does the “concentration at which cell lysis occurred” value [5] read?
Answer: > 200 mM

Question: Which results are given for `CC1=NC2[C@@H](O)[C@@H](O)C(CO)O[C@H]2S1` (stereo partly drawn) [NAGal-thiazoline (2.6), N-acetyl galactosamine-thiazoline]?
Answer: Ki [6]: 100 µM; mode of inhibition of hexosaminidase A (human hexosaminidase A): competitive inhibitors

Question: Which “acute or sub-acute toxicity” value (adult mice; [11]) does the source give for `CC1=NC2[C@@H](O)[C@H](O)C(CO)O[C@H]2S1` (stereo partly drawn) [NGT, N-acetylglucosamine-thiazoline] here?
Answer: No acute or sub-acute toxicity was observed

Question: What about the “histological examination of autopsied tissues” value (adult mice; [11]) of the same compound?
Answer: no changes

Question: What about the signs of toxicity (adult mice; adult mice, 10, 40 or 100 mg i.p.) of the same compound?
Answer: None of the mice treated with inhibitors showed any signs of toxicity

Question: What about the “activity of Hexosaminidase A/S (MUGS)” value ([1]; 2 days, varying concentrations) of the same compound?
Answer: increased

Question: And the “hexosaminidase S activity” value ([1]; NGT)?
Answer: increased

Question: What about the “hexosaminidase A and S activity” value ([2]; NGT) of the same compound?
Answer: increased

Question: What about the “protection of hexosaminidase B against denaturation by guanidine hydrochloride” value (hexosaminidase B [7]) of the same compound?
Answer: protect

Question: And the Ki [6]?
Answer: 20 µM

Question: And the “MUGS hydrolysis with increasing concentration” value ([3]; ITSD cells)?
Answer: decline

Question: And the “mode of inhibition of hexosaminidase A” value (human hexosaminidase A)?
Answer: competitive inhibitors

Question: What about the “plasma hexosaminidase A plus B (total Hex) level” value [8] of the same compound?
Answer: unchanged

Question: And the “brain hexosaminidase A plus B” value (hexosaminidase A plus B)?
Answer: essentially unchanged

Question: And the “hexosaminidase B activity after heat denaturation versus control” value (hexosaminidase B [9])?
Answer: preserved greater hexosaminidase B activity than seen in the control

Question: What about the “increase in hexosaminidase A activity” value ([4]; WT fibroblasts, NGT 3 mM) of the same compound?
Answer: two fold

Question: And the “plasma β-mannosidase level” value (β-mannosidase; CD1 mice, 10, 40 or 100 mg i.p., 2 days later)?
Answer: unchanged

Question: What about the “serum βD mannosidase levels versus control” value (β-mannosidase; mice, 10, 40 or 100 mg i.p., 3 to 4 days after treatment) of the same compound?
Answer: generally the same

Question: With `CC(=O)NC1NCCC(O)C1O` (stereo not drawn) [XylNAc-isofagomine•HCI (2.7), XylNAc-isofagomine•HCI] as the compound, how does the Ki [10] read?
Answer: 38 µM

Question: And the Ki (human hexosaminidase A; read-out: Ki Hex A)?
Answer: 90 µM
